Literature values, collected in patent US20220340870A1, “FUNCTIONAL NEUROMODULATORY ASSEMBLOIDS” (The Board of Trustees of the Leland Stanford Junior …, priority 2019, published 2022).

Biological target: Smo (Homo sapiens, UniProt Q99835)
Details: interacting with the Smo heptahelical domain

Chain of Smo (Q99835 28-787): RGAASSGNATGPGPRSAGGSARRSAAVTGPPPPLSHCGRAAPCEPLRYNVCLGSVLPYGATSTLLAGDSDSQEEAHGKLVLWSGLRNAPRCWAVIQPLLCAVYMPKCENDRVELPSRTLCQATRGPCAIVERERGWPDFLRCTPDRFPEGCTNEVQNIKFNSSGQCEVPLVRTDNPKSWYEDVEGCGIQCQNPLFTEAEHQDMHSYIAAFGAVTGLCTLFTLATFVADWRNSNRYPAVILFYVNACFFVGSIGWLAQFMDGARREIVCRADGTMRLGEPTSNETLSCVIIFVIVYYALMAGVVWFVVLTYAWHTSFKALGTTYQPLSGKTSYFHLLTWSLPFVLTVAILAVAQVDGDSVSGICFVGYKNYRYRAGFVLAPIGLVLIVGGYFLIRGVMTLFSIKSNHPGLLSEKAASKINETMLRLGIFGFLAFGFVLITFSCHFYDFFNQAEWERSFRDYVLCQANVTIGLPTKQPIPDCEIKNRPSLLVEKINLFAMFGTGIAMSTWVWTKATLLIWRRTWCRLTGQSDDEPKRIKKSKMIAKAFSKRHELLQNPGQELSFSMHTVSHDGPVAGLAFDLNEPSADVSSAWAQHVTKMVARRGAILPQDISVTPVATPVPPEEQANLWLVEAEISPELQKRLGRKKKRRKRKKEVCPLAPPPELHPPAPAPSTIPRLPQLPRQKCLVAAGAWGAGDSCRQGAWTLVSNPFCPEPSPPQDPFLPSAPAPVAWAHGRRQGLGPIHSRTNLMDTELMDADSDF

CNC1CCC(N(Cc2cccc(-c3ccncc3)c2)C(=O)c2sc3ccccc3c2Cl)CC1 (stereo not shown) [SAG]
Kd: 59 nM
